The values that follow come from patent US10745346B2, “Agonists of protein tyrosine phosphatase SHP-1” (priority 2015, dated 2020).

Some results are limits rather than exact numbers.

Assay [1] addresses Recombinant SHP-1 protein (Homo sapiens, UniProt P29350). As to the kind of experiment: SHP-1 phosphatase activity assay (RediPlate 96 EnzChek Tyrosine Phosphatase Assay kit). In kind it is biochemical. Conditions: SC derivatives at 1 μM for 2 hr; recombinant SHP-1 25 ng; control DMSO = 100; mean±SD (N=3). The procedure:
Effects of SC Derivatives on Phosphatase Activity in Recombinant SHP-1 RediPlate 96 EnzChek Tyrosine Phosphatase Assay kit (R-22067) was used for SHP-1 activity assay (Molecular Probes). Recombinant SHP-1 protein (25 ng) was reacted with SC derivatives at 1 μM for 2 hr. Then the SHP-1 phosphatase activity assay was performed according to the user's manual and the absorbance was measured at 465 nm. The control group was DMSO, which functioned as the solvent of the SC derivatives. The values were expressed by mean±SD (N=3).

In assay [2] the test system is PLC5 cells (a hepatocellular carcinoma cell line). Briefly: Cytotoxicity, MTT cell viability assay. Type of assay: cell-based. Conditions: 72 h exposure. How it is done: PLC5 cells (a hepatocellular carcinoma cell line) were seeded at 5×10^3 cells per well in 96-well plates. Then, cells were exposed to SC derivatives at the indicated doses for 72 h. After that, cells were incubated with MTT (1 mg/ml) (Sigma-Aldrich, St. Louis, Mo.) for 2 h at 37° C. Cell viability was then assessed by measuring the absorbance at 570 nm using a microplate reader.

Chain of Recombinant SHP-1 protein (P29350 whole entry): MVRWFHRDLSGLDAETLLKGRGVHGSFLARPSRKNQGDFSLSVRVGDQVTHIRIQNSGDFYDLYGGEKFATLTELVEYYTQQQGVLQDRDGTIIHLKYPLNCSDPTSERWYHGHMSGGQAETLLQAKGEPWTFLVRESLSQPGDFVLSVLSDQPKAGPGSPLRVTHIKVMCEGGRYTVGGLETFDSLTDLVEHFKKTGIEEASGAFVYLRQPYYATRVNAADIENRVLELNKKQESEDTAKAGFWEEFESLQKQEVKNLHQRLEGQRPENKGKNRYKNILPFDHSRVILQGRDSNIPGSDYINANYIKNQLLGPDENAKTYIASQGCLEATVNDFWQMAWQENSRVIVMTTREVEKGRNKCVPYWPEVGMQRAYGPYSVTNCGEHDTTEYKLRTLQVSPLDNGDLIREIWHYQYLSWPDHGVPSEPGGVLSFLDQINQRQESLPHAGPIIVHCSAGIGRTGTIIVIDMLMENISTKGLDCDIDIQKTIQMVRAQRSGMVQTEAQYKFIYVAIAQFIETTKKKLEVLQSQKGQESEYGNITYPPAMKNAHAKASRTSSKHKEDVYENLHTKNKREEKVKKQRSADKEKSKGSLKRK

As usually defined, the IC50 is the point on the concentration scale where inhibition reaches its midpoint. A high value points to a need for much substance. On to `N#Cc1ccc(Oc2cc(NC(=O)Nc3ccc(Cl)c(Oc4ccc(C#N)cc4)c3)ccc2Cl)cc1` [compound 92, 1,3-bis(4-chloro-3-(4-cyanophenoxy)phenyl)urea], for which, in assay [1], the “SHP-1 Activity (% of control)” value is listed as 252.27 ± 10.78 % of control. In assay [2], this compound came in with an IC50 greater than 10 µM.

As for `N#CCc1ccc(NC(=O)N2CCOc3ccc(Oc4ccc(C#N)cc4)cc32)cc1` [compound 160, N-(4-(cyanomethyl)phenyl)-6-(4-cyanophenoxy)-2H-benzo[b][1,4]oxazine-4(3H)-carboxamide], the “SHP-1 Activity (% of control)” value in assay [1] was 116.47 ± 6.60 % of control. Also, the half-maximal inhibitory concentration (IC50) in assay [2] is 5.13 µM.

Regarding `N#Cc1ccc(Oc2ccc3cccc(NC(=O)Nc4ccc(Cl)c(C(F)(F)F)c4)c3c2)cc1` [compound 72, 1-(4-chloro-3-(trifluoromethyl)phenyl)-3-(7-(4-cyanophenoxy)naphthalen-1-yl)urea], in assay [1], the “SHP-1 Activity (% of control)” value is 131.47 ± 14.99 % of control. Also, inhibition in assay [2] was half-maximal at 2.25 µM (IC50).

Regarding `N#Cc1ccc(Oc2ccc3c(c2)N(C(=O)Nc2ccc(Cl)c(C(F)(F)F)c2)CCO3)cc1` [compound 157, N-(4-chloro-3-(trifluoromethyl)phenyl)-6-(4-cyanophenoxy)-2H-benzo[b][1,4]oxazine-4(3H)-carboxamide], in assay [1], the “SHP-1 Activity (% of control)” value is on record as 106.27 ± 6.28 % of control. Also, the concentration for half-maximal inhibition (IC50) in assay [2] is 1.76 µM.

Take `N#Cc1ccc(Oc2ccc3c(c2)OCCN3C(=O)Nc2ccc(Cl)c(C(F)(F)F)c2)cc1` [compound 165, N-(4-chloro-3-(trifluoromethyl)phenyl)-7-(4-cyanophenoxy)-2H-benzo[b][1,4]oxazine-4(3H)-carboxamide]: the “SHP-1 Activity (% of control)” value in assay [1] was 169.27 ± 1.19 % of control. In assay [2], this compound gave an IC50 greater than 10 µM.

`N#Cc1ccc(Oc2cc(NC(=O)Nc3cccc(C(F)(F)F)c3)ccc2F)cc1` [compound 151, 1-(3-(4-cyanophenoxy)-4-fluorophenyl)-3-(3-(trifluoromethyl)phenyl)urea]: in assay [1], the “SHP-1 Activity (% of control)” value is reported as 136.00 ± 9.09 % of control. Also, the IC50 in assay [2] worked out at 0.59 µM.

Take `N#Cc1ccc(Oc2cccc(NC(=O)Nc3ccc(Cl)c(C(F)(F)F)c3)c2)cc1Cl` [compound 79, 1-(4-chloro-3-(trifluoromethyl)phenyl)-3-(3-(3-chloro-4-cyanophenoxy)phenyl)urea]: in assay [1], the “SHP-1 Activity (% of control)” value is 112.25 ± 0.60 % of control. The IC50 in assay [2] came out at 0.82 µM.

For the compound `C#Cc1cccc(NC(=O)Nc2cc(Oc3ccc(C#N)cc3)ccc2F)c1` [compound 144, 1-(5-(4-cyanophenoxy)-2-fluorophenyl)-3-(3-ethynylphenyl)urea], the “SHP-1 Activity (% of control)” value in assay [1] is 159.94 ± 30.14 % of control. It took 1.79 µM to reach half-maximal inhibition in assay [2] (IC50).

Turning to `Cc1ccc(NC(=O)Nc2ccc(CC#N)cc2)cc1Oc1ccc(C#N)cc1` [compound 135, 1-(4-(cyanomethyl)phenyl)-3-(3-(4-cyanophenoxy)-4-methylphenyl)urea], the “SHP-1 Activity (% of control)” value in assay [1] is 153.32 ± 14.65 % of control. Besides, inhibition in assay [2] was half-maximal at 1.85 µM (IC50).

Turning to `N#Cc1ccc(Oc2ccc(Cl)c(NC(=O)Nc3cc(C(F)(F)F)cc(C(F)(F)F)c3)c2)cc1` [compound 141, 1-(3,5-bis(trifluoromethyl)phenyl)-3-(2-chloro-5-(4-cyanophenoxy)phenyl) urea], in assay [1], the “SHP-1 Activity (% of control)” value was 273.26 ± 86.35 % of control. This compound also returned a concentration for half-maximal inhibition (IC50) in assay [2] of 0.28 µM.

Turning to `N#Cc1ccc(Oc2ccc3c(c2)N(C(=O)Nc2ccc(F)c(C(F)(F)F)c2)CCO3)cc1` [compound 156, 6-(4-cyanophenoxy)-N-(4-fluoro-3-(trifluoromethyl)phenyl)-2H-benzo[b][1,4]oxazine-4(3H)-carboxamide], the “SHP-1 Activity (% of control)” value in assay [1] is listed as 112.47 ± 7.98 % of control. In addition, it took 1.87 µM to reach half-maximal inhibition in assay [2] (IC50).

`N#CCc1ccc(NC(=O)Nc2ccc(Cl)c(Oc3ccc(C#N)cc3)c2)cc1` [compound 149, 1-(4-chloro-3-(4-cyanophenoxy)phenyl)-3-(4-(cyanomethyl)phenyl)urea]: the “SHP-1 Activity (% of control)” value in assay [1] was 140.90 ± 6.65 % of control. In addition, the midpoint of inhibition in assay [2], the IC50, lay at 1.38 µM.

For `C#Cc1cccc(NC(=O)N2CCOc3cc(Oc4ccc(C#N)cc4)ccc32)c1` [compound 162, 7-(4-cyanophenoxy)-N-(3-ethynylphenyl)-2H-benzo[b][1,4]oxazine-4(3H)-carboxamide], the “SHP-1 Activity (% of control)” value in assay [1] was 141.39 ± 15.44 % of control. Besides, in assay [2], half-maximal inhibition (IC50) required 3.06 µM.

On to `N#CCc1ccc(Oc2ccc(NC(=O)Nc3cccc(C(F)(F)F)c3)cc2)cc1` [compound 173, 1-(4-(4-(cyanomethyl)phenoxy)phenyl)-3-(3-(trifluoromethyl)phenyl)urea], for which, in assay [1], the “SHP-1 Activity (% of control)” value was 110.75 ± 1.18 % of control. The compound further registered an IC50 in assay [2] greater than 10 µM.

As to `Cc1ccc(NC(=O)Nc2ccc(C)c(Oc3ccc(C#N)nc3)c2)cc1Oc1ccc(C#N)cc1` [compound 99, 1-(3-(4-cyanophenoxy)-4-methylphenyl)-3-(3-((6-cyanopyridin-3-yl)oxy)-4-methylphenyl)urea], the “SHP-1 Activity (% of control)” value in assay [1] was 99.86 ± 3.65 % of control. For the same compound, half-maximal inhibition in assay [2] (IC50) was put at 0.18 µM.

`C#Cc1cccc(NC(=O)N2CCOc3ccc(Oc4ccc(C#N)cc4)cc32)c1` [compound 161, 6-(4-cyanophenoxy)-N-(3-ethynylphenyl)-2H-benzo[b][1,4]oxazine-4(3H)-carboxamide]: in assay [1], the “SHP-1 Activity (% of control)” value was 140.58 ± 11.39 % of control. Also, in assay [2], the half-maximal inhibitory concentration (IC50) is greater than 10 µM.

Consider `Cc1ccc(NC(=O)Nc2ccc(C)c(Oc3ccc(C#N)cc3F)c2)cc1Oc1ccc(C#N)cc1F` [compound 85, 1,3-bis(3-(4-cyano-2-fluorophenoxy)-4-methylphenyl)urea], for which the “SHP-1 Activity (% of control)” value in assay [1] was 91.42 ± 10.47 % of control. The same compound came in with a concentration for half-maximal inhibition (IC50) in assay [2] greater than 10 µM.

For `N#Cc1ccc(Oc2ccc(NC(=O)Nc3ccc(Cl)c(C(F)(F)F)c3)c(F)c2)cc1Cl` [compound 108, 1-(4-chloro-3-(trifluoromethyl)phenyl)-3-(4-(3-chloro-4-cyanophenoxy)-2-fluorophenyl)urea], in assay [1], the “SHP-1 Activity (% of control)” value was 133.11 ± 12.03 % of control. The compound also returned an IC50 in assay [2] greater than 10 µM.

For the compound `Cc1cc(Oc2cc(NC(=O)Nc3ccc(C)c(Oc4ccc(C#N)c(C)c4)c3)ccc2C)ccc1C#N` [compound 98, 1,3-bis(3-(4-cyano-3-methylphenoxy)-4-methylphenyl)urea], the “SHP-1 Activity (% of control)” value in assay [1] is listed as 88.80 ± 14.30 % of control. In assay [2], this compound displayed an IC50 of 0.14 µM.

For `CC1=CCC(NC(=O)C(=O)Nc2ccc(C)c(Oc3ccc(C#N)cc3)c2)C=C1OC1C=CC(C#N)=CC1` (stereo not shown) [compound 71, N^1-(3-((4-cyanocyclohexa-2,4-dien-1-yl)oxy)-4-methylcyclohexa-2,4-dien-1-yl)-N^2-(3-(4-cyanophenoxy)-4-methylphenyl)oxalamide], the “SHP-1 Activity (% of control)” value in assay [1] was 87.54 ± 10.21 % of control. The same compound registered an IC50 in assay [2] of 0.21 µM.

Turning to `Cc1ccc(NC(=O)Nc2ccc(C)c(Oc3ccc(C#N)c(Cl)c3)c2)cc1Oc1ccc(C#N)c(Cl)c1` [compound 82, 1,3-bis(3-(3-chloro-4-cyanophenoxy)-4-methylphenyl)urea], in assay [1], the “SHP-1 Activity (% of control)” value was 92.68 ± 5.66 % of control. Also, 4.14 µM corresponded to half-maximal inhibition in assay [2] (IC50).

Turning to `N#Cc1ccc(Oc2ccc(F)c(NC(=O)Nc3cc(Oc4ccc(C#N)cc4)ccc3F)c2)cc1` [compound 97, 1,3-bis(5-(4-cyanophenoxy)-2-fluorophenyl)urea], the “SHP-1 Activity (% of control)” value in assay [1] is given as 127.01 ± 9.02 % of control. The same compound came in with an IC50 in assay [2] greater than 10 µM.

Consider `N#CCc1ccc(NC(=O)Nc2cc(Oc3ccc(C#N)cc3)ccc2F)cc1` [compound 146, 1-(4-(cyanomethyl)phenyl)-3-(5-(4-cyanophenoxy)-2-fluorophenyl)urea], for which the “SHP-1 Activity (% of control)” value in assay [1] was 139.68 ± 6.63 % of control. The same compound yielded an IC50 in assay [2] of 2.59 µM.

In the case of `N#Cc1ccc(Oc2cc(NC(=O)Nc3cc(C(F)(F)F)cc(C(F)(F)F)c3)ccc2Cl)cn1` [compound 182, 1-(3,5-bis(trifluoromethyl)phenyl)-3-(4-chloro-3-((6-cyanopyridin-3-yl)oxy)phenyl)urea], the “SHP-1 Activity (% of control)” value in assay [1] was 110.50 ± 6.08 % of control. Besides, in assay [2], half-maximal inhibition (IC50) required 0.56 µM.

On to `N#Cc1ccc(Oc2ccc3cccc(NC(=O)Nc4cccc5ccc(Oc6ccc(C#N)cc6)cc45)c3c2)cc1` [compound 73, 1,3-bis(7-(4-cyanophenoxy)naphthalen-1-yl)urea], for which the “SHP-1 Activity (% of control)” value in assay [1] is 102.24 ± 17.36 % of control. The same compound came in with an IC50 in assay [2] greater than 10 µM.

For `N#Cc1ccc(Oc2ccc(F)c(NC(=O)Nc3ccc(Cl)c(C(F)(F)F)c3)c2)cc1` [compound 105, 1-(4-chloro-3-(trifluoromethyl)phenyl)-3-(5-(4-cyanophenoxy)-2-fluorophenyl)urea], the “SHP-1 Activity (% of control)” value in assay [1] is on record as 424.63 ± 10.66 % of control. This compound registered a half-inhibitory concentration (IC50) in assay [2] of 0.47 µM.

In the case of `Cc1ccc(NC(=O)C2(C(=O)O)CC2)cc1Oc1ccc(C#N)cc1` [compound 68], the “SHP-1 Activity (% of control)” value in assay [1] is on record as 84.36 ± 11.31 % of control. This compound gave an IC50 in assay [2] greater than 10 µM.

Consider `N#Cc1ccc(Oc2cc(NC(=O)Nc3ccc(Cl)c(C(F)(F)F)c3)ccc2Cl)cc1Cl` [compound 179, 1-(4-chloro-3-(3-chloro-4-cyanophenoxy)phenyl)-3-(4-chloro-3-(trifluoromethyl)phenyl)urea], for which the “SHP-1 Activity (% of control)” value in assay [1] is recorded as 99.11 ± 7.09 % of control. The half-inhibitory concentration (IC50) in assay [2] was 0.95 µM.

Consider `Cc1ccc(Oc2ccc(C#N)cc2)cc1NC(=O)Nc1cc(Oc2ccc(C#N)cc2)ccc1C` [compound 93, 1,3-bis(5-(4-cyanophenoxy)-2-methylphenyl)urea], for which the “SHP-1 Activity (% of control)” value in assay [1] was 94.07 ± 0.82 % of control. The compound also registered an IC50 in assay [2] greater than 10 µM.
